In patent US6642273B2, “Unsaturated derivatives at the 4-position of 6-tert-butyl-1,1-dimethylindane and their use in human and veterinary medicine and in cosmetics” (Galderma Research & Development, priority 1997, dated 2003):

| melting point | SMILES |
| --- | --- |
| 99 to 100 °C | C=C(c1ccsc1C=O)c1cc(C(C)(C)C)cc2c1CCC2(C)C [Example 9, 3-[1-(6-tert-Butyl-1,1-dimethylindan-4-yl)ethen-1-yl]-thiophene-2-carboxaldehyde] |
| 146 to 148 °C | C=C(c1ccsc1C(=O)O)c1cc(C(C)(C)C)cc2c1CCC2(C)C [Example 10, 3-[1-(6-tert-Butyl-1,1-dimethylindan-4-yl)ethen-1-yl]-thiophene-2-carboxylic Acid] |
| 148 to 150 °C | C=C(c1cc(C(C)(C)C)cc2c1CCC2(C)C)c1sccc1C=O [Example 11, 2-[1-(6-tert-Butyl-1,1-dimethylindan-4-yl)ethen-1-yl]-thiophene-3-carboxaldehyde] |
| 148 to 150 °C | C=C(c1cc(C(C)(C)C)cc2c1CCC2(C)C)c1sccc1C(=O)O [Example 12, 2-[1-(6-tert-Butyl-1,1-dimethylindan-4-yl)ethen-1-yl]-thiophene-3-carboxylic Acid] |
